In ChEMBL document CHEMBL1201862, “PubChem BioAssay data set” (2004):
Calls of active or inactive are those of the source.

Columns and labels:
INS1 = assay: INS-1E survival protection against cytokine death – cell-based, luminescence, retest, dose response (AID 449756); format: functional; details: Rattus norvegicus, INS1;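 also: cell death triggered by IL-1 beta plus TNF-alpha plus IFN-gamma mixture; protective hits raise ATP signal compared with cytokine alone wells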
Vero = assay: viability of Vero cells under compound – cytotoxicity control for flavivirus capping enzyme inhibitors (AID 588742); format: functional; details: Chlorocebus sabaeus
[1] = Luminescence Cell-Based Dose Response HTS to Identify Activators of Luciferase Translation or Activity in H4 […] Cells. [Related pubchem assays: 1829 (Project Summary), 1814 (Primary HTS)]; format: functional
[2] = biological target: T1, Tyrosine-protein phosphatase non-receptor type 22 (Homo sapiens, UniProt Q9Y2R2); assay: PubChem AID 2140
T1 sequence (Q9Y2R2 whole entry): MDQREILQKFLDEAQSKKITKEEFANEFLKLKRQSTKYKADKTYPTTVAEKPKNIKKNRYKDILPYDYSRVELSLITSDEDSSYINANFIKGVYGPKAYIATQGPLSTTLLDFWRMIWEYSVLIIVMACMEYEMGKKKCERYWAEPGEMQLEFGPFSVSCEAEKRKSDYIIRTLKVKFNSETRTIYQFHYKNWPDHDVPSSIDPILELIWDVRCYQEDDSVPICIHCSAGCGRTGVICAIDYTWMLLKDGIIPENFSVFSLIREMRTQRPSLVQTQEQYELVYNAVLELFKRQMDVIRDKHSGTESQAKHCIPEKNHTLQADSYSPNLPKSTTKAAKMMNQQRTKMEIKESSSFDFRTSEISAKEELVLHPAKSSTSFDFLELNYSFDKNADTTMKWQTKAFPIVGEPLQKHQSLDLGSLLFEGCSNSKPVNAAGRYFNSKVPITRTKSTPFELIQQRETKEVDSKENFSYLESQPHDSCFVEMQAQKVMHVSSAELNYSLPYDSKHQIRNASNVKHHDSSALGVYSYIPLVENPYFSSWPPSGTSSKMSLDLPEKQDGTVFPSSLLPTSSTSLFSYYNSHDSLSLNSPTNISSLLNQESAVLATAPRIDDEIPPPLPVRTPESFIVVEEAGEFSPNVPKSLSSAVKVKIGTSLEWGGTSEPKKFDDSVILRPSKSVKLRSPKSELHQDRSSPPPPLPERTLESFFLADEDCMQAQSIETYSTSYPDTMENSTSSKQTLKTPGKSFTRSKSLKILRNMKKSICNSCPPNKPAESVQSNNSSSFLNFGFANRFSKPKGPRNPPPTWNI

[3] = biological target: T1, Tyrosine-protein phosphatase non-receptor type 22; format: functional
[4] = biological target: T2, Tyrosine-protein phosphatase non-receptor type 7 (Homo sapiens, UniProt P35236); assay: inhibition of hematopoietic tyrosine phosphatase HePTP – biochemical, set 2, SAR follow-up (AID 449736); format: functional
T2 sequence (P35236 whole entry): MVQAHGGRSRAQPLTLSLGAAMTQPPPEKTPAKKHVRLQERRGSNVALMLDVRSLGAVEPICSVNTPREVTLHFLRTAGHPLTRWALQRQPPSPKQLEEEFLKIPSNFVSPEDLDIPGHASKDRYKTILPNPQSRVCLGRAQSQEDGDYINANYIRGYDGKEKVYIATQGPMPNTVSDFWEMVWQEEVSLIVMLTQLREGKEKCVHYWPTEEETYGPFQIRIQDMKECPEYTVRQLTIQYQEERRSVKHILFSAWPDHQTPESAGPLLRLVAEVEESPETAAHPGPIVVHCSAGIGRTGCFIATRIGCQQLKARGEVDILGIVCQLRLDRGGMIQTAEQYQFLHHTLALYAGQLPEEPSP

[5] = biological target: T3, Tyrosine-protein phosphatase non-receptor type 12 (Homo sapiens, UniProt Q05209); assay: SAR Selectivity Analysis of small molecule inhibitors of PEST using pCAP in a fluorescence assay. [Related pubchem assays (depositor defined):AID1779, AID1784, AID2135]; format: functional
T3 sequence (Q05209 whole entry): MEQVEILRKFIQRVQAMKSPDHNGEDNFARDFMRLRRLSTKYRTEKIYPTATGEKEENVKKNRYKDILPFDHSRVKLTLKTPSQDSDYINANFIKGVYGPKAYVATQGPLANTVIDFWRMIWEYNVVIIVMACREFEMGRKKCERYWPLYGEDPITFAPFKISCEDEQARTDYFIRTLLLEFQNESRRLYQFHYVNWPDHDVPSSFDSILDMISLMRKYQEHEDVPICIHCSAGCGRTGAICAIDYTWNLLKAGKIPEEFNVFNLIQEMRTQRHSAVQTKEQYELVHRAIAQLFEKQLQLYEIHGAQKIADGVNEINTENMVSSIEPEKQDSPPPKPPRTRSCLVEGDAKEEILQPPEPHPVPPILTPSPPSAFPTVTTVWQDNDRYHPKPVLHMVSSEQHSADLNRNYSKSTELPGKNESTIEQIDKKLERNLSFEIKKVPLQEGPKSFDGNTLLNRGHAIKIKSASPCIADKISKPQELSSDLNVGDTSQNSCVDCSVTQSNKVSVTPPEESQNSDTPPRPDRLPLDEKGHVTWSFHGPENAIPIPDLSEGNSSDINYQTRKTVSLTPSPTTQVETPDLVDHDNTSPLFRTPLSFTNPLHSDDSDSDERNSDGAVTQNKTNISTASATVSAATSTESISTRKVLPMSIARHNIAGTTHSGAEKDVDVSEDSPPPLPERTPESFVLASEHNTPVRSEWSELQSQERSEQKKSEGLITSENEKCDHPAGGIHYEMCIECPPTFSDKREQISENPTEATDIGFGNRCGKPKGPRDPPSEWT

SMILES | AC50 (INS1) | CC50 (Vero) | EC50 [1] | IC50 [2] | IC50 [3] | IC50 [4] | IC50 [5]
COc1ccc(Nc2ccc3c(c2)=NC2(CCCCC2)[N+]=3[O-])cc1 | 1.67 µM (active) | 10.8 µM (active) | > 120 µM (not active) | – | – | – | –
COc1ccc(/C=C2\SC(=S)N(CCC(=O)Nc3ccc(C(=O)O)cc3)C2=O)cc1OC | – | – | – | 7.46 µM (active) | 3.74 µM (active) | 0.312 µM (active) | 1.13 µM (active)
